Experimental data published in article PMC8397418, “Novel Bis-Thiazole Derivatives: Synthesis and Potential Cytotoxic Activity Through Apoptosis With Molecular Docking Approaches” (Frontiers in Chemistry, 2021).

Assays:
KF-28 cells [1] = experiment: Quantitative RT-PCR of apoptosis-related genes; format: cell-based, human; details: 48 h
Protocol: Next, we investigated the pathway through which apoptosis is induced by compounds 5a, 5b, and 5f in KF-28 cells. For that purpose, after treating cells with each compound, RNA was extracted, cDNA was synthesized, and RT-PCR was performed to quantify the mRNA expression of pro-apoptotic genes (p53, bax, puma), caspases 3, 8 9, anti-apoptotic gene (Bcl-2), and Pim-1 kinase genes in KF-28 cells.
The cells were grown in 10 cm^2 culture dishes to a monolayer with a confluence of 90% in triplicates. After different treatments, the cells were washed twice with PBS and then pelleted by centrifugation for 5 min at 1800 rpm at 4°C. The cells were lysed by Trizol reagent (Invitrogen), and then total RNA was purified with the phenol/chloroform extraction method. Concentration and purity of RNA samples were measured using NanoDrop. The RNA purity was assessed as OD260/OD230 (≥1.5) using NanoDrop. gDNA was eliminated by DNase. The RNA from three biological samples was then pooled for mRNA analysis, cDNA was synthesized using the iScript kit (Bio-Rad, United States) according to the manufacturer’s recommendation, and RT-PCRs consisted of 8.34 µL Fluocycle® II SYBR® (Euroclone, Milan, Italy), 0.5 µL of both 10 µM forward and reverse primers, 1 µL cDNA, and 6.34 µL of H2O. All reactions were performed for 35 cycles using the following temperature profile: 95°C for 5 min (initial denaturation), 95°C for […] (denaturation), 55°C for […] (annealing), and 72°C for […] (extension) ([Nafie et al., 2020a]; [Sarhan et al., 2020]). Then, the Ct values were collected, with the folds of changes between all the samples.

KF-28 cells [2] = experiment: Annexin V-FITC/PI apoptosis assessment; format: cell-based, human; details: 48 h, cisplatin 10 μM, DMSO control 0.45%
Protocol: Therefore, we decided to use such technique to investigate if the cytotoxic effect of the compounds indicated by MTT and the cell cycle experiments is apoptotic cell death or not. For that purpose, two cell lines, KF-28 and A2780, were stained by annexin V/PI after treatment with different compounds vs. DMSO for two days in parallel with cisplatin as a reference drug. Results from annexin staining analysis show appreciated annexin V–stained populations when cells are treated with compounds 5a–c, 5f, and 9. […] Similar results were obtained from the other cell line, A2780, treated with the same compounds (Figure 2B).
The cells were seeded into six-well culture plates (3–5 × 10^5 cells/well) and incubated overnight at 37°C, under 5% CO2. The cells were then treated with indicated compounds for 48 h. Next, media supernatants and the cells were collected and washed with ice-cold PBS. Next, the cells were stained with PI (10 mg/ml) for 30 min and analyzed for DNA contents using flow cytometry analysis using an FL2 (λex/em 535/617 nm) signal detector (ACEA Novocyte™ flow cytometer, ACEA Biosciences, Inc., San Diego, CA, United States). For each sample, 12,000 events are acquired. Cell cycle distribution is calculated using a CytoFLex machine and analyzed by CytExpert software. Flow cytometric methodologies (annexin V/PI staining with cell cycle analyses) are carried out as previously described ([Nafie et al., 2020a]; [Nafie et al., 2020b]; [Gad et al., 2020]).

[3] = tested on: MDA-MB-231 breast cancer cells; experiment: MTT cytotoxicity assay, MDA-MB-231; format: cell-based; details: Homo sapiens, MDA-MB-231; MTT, 72 h, n = 3; read-out: IC50 MDA-MB-231 (Breast)
Protocol: The synthesized derivatives were screened for their cytotoxic activities against five cancer cell lines (two breast cancer cell lines: MCF-7 and MDA-MB-231, two ovarian cancer cell lines: A2780 and KF-28, and one cervical cancer cell line: Hela). This study was performed using serial concentrations of 25, 50, 100, 150, and 200 µM of each compound using the MTT assay. Percentages of cell viability of the tested compounds with serial concentration against the tested panel of cell lines are depicted in Figure 1, in which there is a decrease in the cell viability with increasing concentrations in a dose–response pattern. […] Therefore, compounds 5a, 5b, and 5f were thought worthwhile to further investigate their effects as either cytotoxic or antiproliferative effects and whether any of them is an inducer of apoptotic cell death in the representative cancer cell lines KF-28 and A2780.
The human ovarian serous carcinoma cell line KF-28 was kindly provided by Prof. Yoshihiro Kikuchi (Department of Obstetrics and Gynecology, National Defense Medical College, Saitama, Japan), and A2780 cell line was purchased from the ECACC (ECACC 93112519). The cells were maintained in RPMI-1640 (Sigma-Aldrich, United States). The cervical cancer cell line, Hela cells, breast cancer cell line, MCF-7, and MDA-MB-231 were purchased from the ATCC and cultured in DMEM. Both types of media were supplemented with 2 mM L-glutamine (Lonza, Belgium), 10% FBS (Sigma, St. Louis, MO, United States), and 1% penicillin/streptomycin (Lonza, Belgium). All cells were incubated at 37°C in 5% CO2 atmosphere (NuAire). All cancer cell lines were cultured according to the routine tissue culture work as discussed by the Freshney group ([Freshney, 2010]). The cells were plated at a density of 5,000 cells in triplicates in a 96-well plate. On the next day, the cells were treated with the indicated compound(s) at the indicated concentrations in a final volume of 100 μL media. Cell viability was assessed after 72 h using MTT solution (Promega) ([Mosmann, 1983]). 20 μL of the reagent was added to each well, the plate was incubated for 3 h, […] was subsequently measured (570 nm) using a plate reader, and then the IC50 values were calculated using Excel ([Tantawy et al., 2020]).

Compound | Bcl-2 expression, maximum decrease (KF-28 cells [1]) | Pim-1 kinase expression, maximum decrease (KF-28 cells [1]) | bax mRNA level, maximum increase (KF-28 cells [1]) [fold] | caspase 3 mRNA level, maximum increase (KF-28 cells [1]) | caspase 9 mRNA level, maximum increase (KF-28 cells [1]) [fold] | p53 mRNA relative expression (KF-28 cells [1]) | puma mRNA level, maximum increase (KF-28 cells [1]) | Total apoptotic cell death (annexin V-positive cells) (KF-28 cells [2]) [%] | IC50 [3] [µM] | caspase 8 mRNA level, maximum increase (KF-28 cells [1]) [fold]
Cc1[nH]c(=NN=C2CCC(=NN=c3[nH]c(C)c(N=Nc4ccccc4)s3)CC2)sc1N=Nc1ccccc1 [5a, 1,4-Bis((5-phenylazo-4-methylthiazol-2-ylidene)hydrazono)cyclohexane] | ≈ 0.5 fold | ≈ 0.31 fold | ~5.2 | ≈ 6.2 fold | ~5.6 | ≈ 4.07 fold | ≈ 5.08 fold | 38.21 |  | 
Cc1ccc(N=Nc2sc(=NN=C3CCC(=NN=c4[nH]c(C)c(N=Nc5ccc(C)cc5)s4)CC3)[nH]c2C)cc1 [5b, 1,4-Bis((5-(4-tolylazo)-4-methylthiazol-2-ylidene)hydrazono)cyclohexane] |  |  | ~3.33 |  |  | ≈ 3.41 fold | ≈ 4.14 fold | 18.77 | > 200 | 
Cc1[nH]c(=NN=C2CCC(=NN=c3[nH]c(C)c(N=Nc4ccccc4Cl)s3)CC2)sc1N=Nc1ccccc1Cl [5f, 1,4-Bis((5-(2-chlorophenylazo)-4-methylthiazol-2-ylidene)hydrazono)cyclohexane] | ≈ 0.76 fold | ≈ 0.86 fold | ~2.33 | ≈ 6.9 fold | ~6.0 | ≈ 3.81 fold | ≈ 3.14 fold |  | > 200 | ~5.5
